Measured values reported in the supplement of paper PMC10307832.

How the values were obtained:
Crenolanib + Luminespib = compound: CC1(COc2ccc3c(c2)ncn3-c2ccc3cccc(N4CCC(N)CC4)c3n2)COC1 [Crenolanib] + CCNC(=O)c1noc(-c2cc(C(C)C)c(O)cc2O)c1-c1ccc(CN2CCOCC2)cc1 [Luminespib] (partner 0.01 µM); assay: relative viability (nuclei count vs DMSO), 5 days (fraction); higher = more cells survive
Outline: (§1)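 The day after seeding in 1536-well plates, lung cancer cell lines were treated by pin tool with a single drug, or with a fixed anchor-drug dose together with five library-drug doses (not always all listed) in √10 steps. After 5 days, a combined fix-and-stain solution (final 0.05% Triton X-100, 1% formaldehyde, 1 ug/ml Hoechst) was added. Nuclei counted on 4× images gave relative viability as treated counts over vehicle counts, reported as the median of duplicate plates.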

Crenolanib + Dasatinib = compound: CC1(COc2ccc3c(c2)ncn3-c2ccc3cccc(N4CCC(N)CC4)c3n2)COC1 [Crenolanib] + Cc1nc(Nc2ncc(C(=O)Nc3c(C)cccc3Cl)s2)cc(N2CCN(CCO)CC2)n1 [Dasatinib] (partner 0.075 µM); assay: as above
Outline: as §1

| Cell Line | relative viability (Crenolanib + Luminespib; first compound 0.01 µM) | relative viability (Crenolanib + Luminespib; first compound 0.03162 µM) | relative viability (Crenolanib + Luminespib; first compound 0.1 µM) | relative viability (Crenolanib + Luminespib; first compound 0.3162 µM) | relative viability (Crenolanib + Luminespib; first compound 1 µM) | relative viability (Crenolanib + Dasatinib; first compound 0.01 µM) | relative viability (Crenolanib + Dasatinib; first compound 0.03162 µM) | relative viability (Crenolanib + Dasatinib; first compound 0.1 µM) | relative viability (Crenolanib + Dasatinib; first compound 0.3162 µM) | relative viability (Crenolanib + Dasatinib; first compound 1 µM) |
| --- | --- | --- | --- | --- | --- | --- | --- | --- | --- | --- |
| COR-L23 | 0.709 | 0.679 | 0.63 | 0.848 | 0.574 | 0.497 | 0.466 | 0.475 | 0.54 | 0.417 |
| COR-L 105 | 1.12 | 0.973 | 0.743 | 0.859 | 0.732 | 0.453 | 0.315 | 0.383 | 0.42 | 0.411 |
| LK-2 | 0.169 | 0.18 | 0.16 | 0.17 | 0.199 | 0.378 | 0.253 | 0.382 | 0.231 | 0.249 |
| 201T | 1.03 | 1.13 | 1.01 | 1.09 | 1.02 | 0.603 | 0.602 | 0.569 | 0.528 | 0.614 |
| HCC-78 |  |  |  |  |  | 0.389 | 0.314 |  | 0.354 | 0.275 |
| NCI-H647 | 0.202 | 0.206 | 0.44 | 0.233 | 0.107 | 0.175 | 0.209 | 0.196 | 0.189 | 0.201 |
| HARA | 0.643 | 0.734 | 0.626 | 0.875 | 0.828 | 0.234 | 0.256 | 0.3 | 0.246 | 0.292 |
| NCI-H650 | 0.839 | 0.791 | 0.777 | 0.872 | 0.757 | 0.493 | 0.472 | 0.425 | 0.404 | 0.356 |
| NCI-H2085 | 0.478 | 0.43 | 0.407 | 0.481 | 0.421 | 0.27 | 0.26 | 0.263 | 0.216 | 0.315 |
| NCI-H2347 | 0.44 |  |  | 0.556 | 0.353 | 0.31 |  |  | 0.278 | 0.295 |
| NCI-H1944 | 0.729 | 0.801 | 0.759 | 0.871 | 0.655 | 0.255 | 0.234 | 0.213 | 0.211 | 0.168 |
| NCI-H1793 | 0.197 | 0.249 | 0.165 | 0.16 | 0.186 | 0.365 | 0.412 | 0.4 | 0.404 | 0.418 |
| NCI-H596 | 1.11 | 0.97 | 0.932 | 1.12 | 1.11 | 0.716 | 0.655 | 0.627 | 0.675 | 0.538 |
| NCI-H520 | 0.19 | 0.269 | 0.279 | 0.216 | 0.221 | 0.244 | 0.194 | 0.197 | 0.244 | 0.309 |
| EKVX | 0.915 | 0.952 | 0.909 | 1.03 | 0.93 | 0.519 | 0.473 | 0.561 | 0.591 | 0.512 |
| NCI-H358 | 1.3 | 0.307 | 0.232 | 0.343 | 0.337 | 0.146 | 0.187 | 0.188 | 0.162 | 0.168 |
| H3255 | 0.963 | 1.06 | 0.986 | 0.917 | 0.854 | 0.323 | 0.266 | 0.376 | 0.422 | 0.338 |

| Cell Line | relative viability (Crenolanib + Luminespib; first compound 0.01 µM) | relative viability (Crenolanib + Luminespib; first compound 0.03162 µM) | relative viability (Crenolanib + Luminespib; first compound 0.1 µM) | relative viability (Crenolanib + Luminespib; first compound 0.3162 µM) | relative viability (Crenolanib + Luminespib; first compound 1 µM) | relative viability (Crenolanib + Dasatinib; first compound 0.01 µM) | relative viability (Crenolanib + Dasatinib; first compound 0.03162 µM) | relative viability (Crenolanib + Dasatinib; first compound 0.1 µM) | relative viability (Crenolanib + Dasatinib; first compound 0.3162 µM) | relative viability (Crenolanib + Dasatinib; first compound 1 µM) |
| --- | --- | --- | --- | --- | --- | --- | --- | --- | --- | --- |
| NCI-H1650 | 0.193 | 0.231 | 0.203 | 0.213 | 0.178 | 0.301 | 0.338 | 0.29 | 0.285 | 0.32 |
| NCI-H1395 | 0.686 | 0.803 | 0.698 | 0.763 | 0.58 | 0.406 | 0.387 | 0.39 | 0.37 | 0.403 |
| NCI-H2228 | 0.137 | 0.15 | 0.105 | 0.193 | 0.228 | 0.488 | 0.555 | 0.519 | 0.46 | 0.518 |
| NCI-H2023 | 0.839 | 0.704 | 0.639 | 1 | 0.453 | 0.656 | 0.603 | 0.669 | 0.743 | 0.567 |
| SW 900 | 0.167 | 0.177 | 0.172 | 0.218 | 0.196 | 0.719 | 0.725 | 0.595 | 0.581 | 0.404 |
| NCI-H3122 | 0.0862 | 0.0824 | 0.0708 | 0.0964 | 0.0864 | 0.862 | 0.73 | 0.782 | 0.963 | 0.972 |
| NCI-H1792 | 0.563 | 0.424 | 0.367 | 0.394 | 0.429 | 0.779 | 0.777 | 0.751 | 0.866 | 0.747 |
| HCC-827 | 0.7 | 0.607 | 0.617 | 0.568 | 0.6 | 0.338 | 0.33 | 0.398 | 0.366 | 0.396 |
| LU99A | 0.253 | 0.217 | 0.219 | 0.287 | 0.207 | 0.492 | 0.579 | 0.669 | 0.581 | 0.522 |
| LC-2-ad | 1.07 | 0.929 | 0.955 | 0.963 | 0.756 | 0.707 | 0.555 | 0.486 | 0.741 | 0.533 |
| NCI-H322M | 0.949 | 0.88 | 0.752 | 0.769 | 0.802 | 0.241 | 0.258 | 0.255 | 0.251 | 0.303 |
| HOP-62 | 0.944 | 0.89 | 0.859 | 0.93 | 0.813 | 0.658 | 0.703 | 0.578 | 0.769 | 0.684 |
| SW 1573 | 0.833 | 0.283 | 0.152 | 0.54 | 0.16 | 0.539 | 0.48 | 0.591 | 0.558 | 0.553 |
| NCI-H1993 | 0.998 | 0.839 | 0.684 | 0.823 | 0.783 | 0.621 | 0.63 | 0.588 | 0.623 | 0.429 |
| NCI-H1734 | 0.174 | 0.171 | 0.191 | 0.173 | 0.291 | 0.502 | 0.427 | 0.468 | 0.465 | 0.453 |
| NCI-H1666 | 1.07 | 1.11 | 0.991 | 0.977 | 1.03 | 0.791 | 0.854 | 0.745 | 0.819 | 0.745 |
| NCI-H460 | 0.0489 | 0.039 | 0.0453 | 0.0313 | 0.0348 | 0.506 | 0.461 | 0.531 | 0.565 | 0.522 |
